Assays:
[1] = system: herpes labialis outbreaks; experiment: Placebo-controlled Phase 1 clinical trial of SADBE in subjects with frequent herpes labialis outbreaks; format: in vivo, human
Description: Methods This exploratory, double-blind, randomized placebo-controlled study was conducted between November 2013 and September 2015 at Massachusetts General Hospital. Healthy adults, ages 18 to 69 years, who self-reported having 6 or more episodes of herpes labialis in the previous 12 months received a topical sensitization dose on the arm at the initial visit, and then received a topical treatment dose applied to a lesion during the first 2 herpes labialis episodes occurring at least 2 weeks after the sensitization dose. Participants were randomized 1:1:1 to receive dimethyl sulfoxide alone (placebo), 2.0% SADBE sensitization and 0.5% SADBE treatment doses, or 2.0% SADBE sensitization, 0.2% SADBE treatment doses. The study was approved by Partners Human Research Committee institutional review board, and all participants provided their written informed consent (clinicaltrials.gov identification No. NCT01971385). Results. Fifty-four patients were enrolled into the study; 43 patients had at least 1 form of contact (either in person or by phone) with research staff following the sensitizing dose and were included in the efficacy data analysis. The data analyzed involves 9 males and 34 females.
One planned primary end point was days to the next herpes labialis outbreak after the last treatment dose. […] Thus, we analyzed time to next outbreak after the sensitization dose. Data from patients who never experienced a first outbreak following sensitization were censored on the last available follow-up date and Kaplan-Meier time-to-event curves were estimated and graphed (FIG. 3). The median time to event for the placebo group was 40 days versus more than 122 days for the 2.0% SADBE group, which difference was highly significant (P=0.009).

[2] = system: herpes labialis outbreaks; experiment: Phase 2 multi-center placebo-controlled study of single dose SADBE in recurrent herpes labialis; format: in vivo, human
Description: After institutional review board approval and written informed consent, this study was conducted at five centers in subjects with four or more herpes labialis episodes in the previous 12 months. Subjects were randomized to receive either (1) one dose of 2% SADBE in DMSO on day 1, (2) 2% SADBE on day 1 and a second lower dose (0.5%) “booster” on day 22, or (3) dimethylsulfoxide (DMSO) vehicle only on days 1 and 22. All subjects were followed for 1 year.
Doses were applied by dipping a cotton swab in a blindly labeled 1 ml vial of liquid study medication, then swabbing a spot on the inner aspect of the upper arm over an area of about 10 to 15 mm diameter encircled by petroleum jelly. After application, the spot was covered by TEGADERM™ dressing, and subjects were advised to remove the dressing and wipe the spot with a wet cloth 3 hours later. The weight of the vial of study medication with the vial standing in it was measured immediately before and immediately after dosing each subject. The difference was the net mass of drug applied. In most cases, 10 mg to 20 mg of drug solution was applied to the arm.

pig skin = experiment: Skin irritation (erythema, edema) after SADBE dermal patches in swine; format: in vivo; conditions: for Average high erythema score: across all patches, doses and exposure times
Excerpt: An additional purpose was to assess immediate and delayed skin irritation, including erythema and edema on the pig skin over 4 weeks after dosing. Skin irritation was scored as in Table 5. [table] It was scored 3 times per week at each patch application site for four weeks. The scores shown are the erythema score at the time of patch removal, and then the highest of the 3 scores taken each week for each patch site.

[3] = HPLC analysis of test article vials and patch controls in air (mini-pig study); format: physicochemical
Description: Squaric acid dibutyl ester (SADBE) at 2% (w/v) concentration in dimethylsulfoxide (DMSO) was added to a skin patch for dermal dosing of SADBE to test for a delayed-type hypersensitivity response or other skin irritation. In the laboratories of Squarex HPLC analysis was conducted to analyze for SADBE content, for analysis of the dose formulation prepared by APS and to determine stability of the test article in the dermal patches during the application time and to test for residual SADBE in the dermal patches after 12 hours applied to the animals.
The skin patches consisted of a polymer backing layer similar to 3M 9916 polyester nonwoven backing layer with adhesive, 3M 9733 polyester film laminate barrier layer, and Precision Fabrics Group 0700-00010 polyester gauze layer. The gauze was heat sealed to the barrier layer. The gauze patch area was 1.53 cm^2.
The tubes of DMSO with patches were transported to the Squarex laboratory, shaken at 200 rpm for 30 minutes to overnight, and then the DMSO from each tube was placed in an injection vial and analyzed for SADBE content by HPLC on a C18 column with the program SADBE3-50 ul. SADBE elutes in this program at about 24.0 minutes and absorbs at 255 nm, so the area of the 24.0 min peak at 255 nm was used to quantify SADBE. The SADBE degradation product squaric acid monobutyl ester (SAMBE) was also quantified by 255 nm area under the curve at the elution time of 12.7 minutes.
The test article vials of 2%, 6%, and 18% SADBE dissolved in DMSO complied with specifications and had the predicted concentrations of SADBE at 24 hours after preparation.
The results indicated the SADBE was stable for more than 12 hours in the patches when not exposed to animal skin. There was no apparent loss of SADBE or conversion of SADBE to SAMBE.

[4] = system: common warts and alopecia areata; conditions: solutions of 0.05% to 2.0% weight/volume, vehicle almost always acetone, applied repeatedly (Buckley et al., Lee et al.); cited from earlier work
[5] = system: herpes labialis (cold sores or oral herpes); conditions: cited from earlier work
[6] = 2% patch control, 20 ul, >12 hours in air
[7] = 2% vial, SADBE in DMSO, 24 hours after preparation
[8] = 6% patch control, 20 ul, >12 hours in air
[9] = 6% vial, SADBE in DMSO, 24 hours after preparation
[10] = 18% vial, SADBE in DMSO, 24 hours after preparation

## CCCCOc1c(OCCCC)c(=O)c1=O [SADBE, squaric acid dibutyl ester]
[1]; 2.0% SADBE sensitization dose on arm, Kaplan-Meier, placebo 40 days, P=0.009
  median time to next herpes labialis outbreak after the sensitization dose: more than 122 days
[1]; 2.0% SADBE, placebo 2 patients
  adverse event: itching and redness at the sensitization site: 13 patients
[1]; exposed to the SADBE sensitization dose for 24 hours
  adverse event: autosensitization dermatitis: 1 patient
[1]; overall, patients
  tolerability: well tolerated
[1]; patients who received 2.0% SADBE for sensitization
  patients who did not experience another outbreak after sensitization: 16 of 28
[2]; 1-dose group (2% SADBE in DMSO day 1) vs placebo, p=0.024
  time to next outbreak from day 43 to 121: superior to the placebo group
[2]; 1-dose group (9/39), placebo 46%, p=0.036
  proportion of subjects with an outbreak in days 43-121: 23%
[2]; 1-dose group, ± standard error, placebo 0.610±0.068, p=0.011
  mean number of outbreaks in days 43-121: 0.231±0.125
[2]; 1-dose, placebo 1.341±1.76, p=0.04
  average number of moderate or severe outbreaks over days 1-365: 0.641±0.931
[2]; 1 dose of SADBE, placebo 0.390±0.703, p=0.04
  average number of moderate or severe outbreaks over days 43-121: 0.128±0.339
[2]; 2% SADBE day 1 and 0.5% booster day 22
  outbreak measures vs placebo, 2-dose group: superior to placebo these same measures, but not significantly so
[2]; topical 2% SADBE
  severity of administration site reactions (most common adverse event): all mild or moderate
  time to resolution of administration site reactions: ≤ 3 months
Pig skin; 20 ul of 2% SADBE, 1 hour exposure
  Average erythema score weeks 0-3: 0
Pig skin; 20 ul of 2% SADBE, 3 hours exposure
  Average erythema score weeks 0-3: 0.83
Pig skin; 20 ul of 2% SADBE, 6 hours exposure
  Average erythema score weeks 0-3: 0.92
Pig skin; 20 ul of 2% SADBE, 24 hours exposure
  Average erythema score weeks 0-3: 1.5
Pig skin; 50 ul of 2% SADBE, 1 hour exposure
  Average erythema score weeks 0-3: 1.5
Pig skin; 50 ul of 2% SADBE, 3 hours exposure
  Average erythema score weeks 0-3: 2.125
Pig skin; 50 ul of 2% SADBE, 6 hours exposure
  Average erythema score weeks 0-3: 1.92
Pig skin; 50 ul of 2% SADBE, 24 hours exposure
  Average erythema score weeks 0-3: 2.5
Pig skin; 80 ul of 2% SADBE, 1 hour exposure
  Average erythema score weeks 0-3: 1.375
Pig skin; 80 ul of 2% SADBE, 3 hours exposure
  Average erythema score weeks 0-3: 1.625
Pig skin; 80 ul of 2% SADBE, 6 hours exposure
  Average erythema score weeks 0-3: 1.25
Pig skin; 80 ul of 2% SADBE, 24 hours exposure
  Average erythema score weeks 0-3: 2.25
Pig skin; Week 1
  Average high erythema score: 1.05
Pig skin; Week 2
  Average high erythema score: 2.60
Pig skin; Week 3
  Average high erythema score: 1.73
Pig skin; Week 4
  Average high erythema score: 0.00
Pig skin; any site, any time after patch application and removal
  edema at drug application site: No pigs had edema
Pig skin; at patch removal
  Average high erythema score: 0.63
[3]; [6]
  % of expected SADBE: 97.7%
  SAMBE as percent of SADBE: 0.86%
[3]; [7]
  % of expected SADBE: 100.8%
  SAMBE as percent of SADBE: 0.88%
[3]; [8]
  % of expected SADBE: 96.8%
  SAMBE as percent of SADBE: 0.96%
[3]; [9]
  % of expected SADBE: 97.5%
  SAMBE as percent of SADBE: 0.96%
[3]; [10]
  % of expected SADBE: 104.4%
  SAMBE as percent of SADBE: 1.00%
[3]; patches not exposed to animal skin, no apparent loss or conversion to SAMBE
  time SADBE was stable in the patches: more than 12 hours
[4]
  treatment of common warts and alopecia areata: used successfully
[5]; SADBE-DMSO solution (Palli et al., Chang et al.)
  time for which a single dose to the arm prevents outbreaks: ≥ 3 months
[5]; single dose applied to the arm, for about four months (Palli et al., Chang et al.)
  number of cold sore outbreaks: significantly decrease number of cold sore outbreaks

— US20210393932A1, “DERMAL PATCHES AND GLASS SWABS FOR APPLICATION OF TOPICAL IMMUNOSENSITIZERS” (Squarex, LLC, priority 2020, published 2021)
